{"source": "patent US7799830B2", "about": "“Cinnamic acid dimers, their preparation and the use thereof for treating neurodegenerative disease” (Korea Institute of Science and Technology, priority 2002, dated 2010)", "key": {"[1]": {"tested_on": "mice administered with beta-amyloid", "test": "passive avoidance test (learning and memory-retention ability of mice)", "assay_type": "in vivo", "settings": "mice given compound and beta-amyloid (1-42); 24 h after training; maximum 300 seconds; average of 10 mice; FIG. 1", "experimental": "Four groups of 10 mice aged 4-5 weeks, weighing 20-25 g were used in the experiment. Each sample was administered with 1% DMSO and 1% CMC using a Sonde once a day (samples: A—physiological salin solution; B—beta-amyloid; C—cinnamic acid dimer (example 1) and beta-amyloid). After injecting […] of each sample to the cerebral ventricle 3 consecutive days, passive avoidance test was conducted on the first and second day for following the last injection. All data was attained by the average of 10 mice.\nIn order to examine the learning and memory-retention ability of a mouse, a passive avoidance test was carried out in accordance with the method described in Song et al, J. Neurochem., 1998, 71, 875. A passive avoidance chamber equipped with a light room and a dark room was prepared, wherein the floor of the dark room was designed to deliver an electrical shock to the test animal. First, a mouse was put in the light room and, upon entering the dark room, an electrical shock of 0.25 mA was given to the animal for 1 second. […] Then, the time it took for the mouse to enter the dark room was measured as a passive avoidance time. The maximum restriction time was set at 300 seconds, i.e., in cases where the mouse took more than 300 seconds to enter the dark room, the passive avoidance time was determined to be 300 seconds."}, "Spraque-Dawley rats": {"tested_on": "Spraque-Dawley rats", "test": "oral toxicity test of cinnamic acid dimers", "assay_type": "in vivo", "experimental": "Twenty female and twenty male Spraque-Dawley rats aged 4 weeks were divided into four groups including 5 female and 5 male rats, after being raised in a vivarium of a temperature of 22±3° C., a relative humidity of 50±10%, an illumination of 150-300 Lux for 1 week.\nThe cinnamic acid dimers prepared in Example 1 were dissolved in corn oil, and the rats of the 4 groups were orally administered with the solution at a dose of 300, 1,000, 3,000 and 10,000 mg/kg once. […] In addition, the rats were killed on the seventh day after administration, dissected, and internal organs were examined with the unaided eye. Daily weight change was measured from the administration day and thus the weight decrease of animals attributed to cinnamic acid dimers was observed."}}}
{"smiles": "COc1cc(C=CC(=O)O)ccc1OCCOc1ccc(C=CC(=O)O)cc1OC", "note": "[Example 1, 1,2-di[2-methoxy-4-(2-carboxylvinyl)]phenoxyethane]", "values": [{"measurement": "step-through latency (passive avoidance time) compared with mice administered with beta-amyloid only", "setting": "[1]", "result": "significantly higher"}, {"measurement": "pathological changes of internal organs at dissection", "setting": "Spraque-Dawley rats; group administered with 5,000 mg/kg or less, seventh day after administration, unaided eye", "result": "No pathological changes were seen with the naked eye"}, {"measurement": "LD50", "setting": "Spraque-Dawley rats; single oral dose in corn oil, observed for 7 days, both males and females", "result": "5,000 mg/kg"}]}
